Measurements from US20230130103A1, “TARGETED PHARMACOLOGICAL THERAPEUTICS IN UVEAL MELANOMA” (Washington University, priority 2017, published 2023).
Starred links: 1 amine or outer side, 2 acyl side, 3 side chain; linkers in the order of their positions; H or OH if unused. Positions of bridges follow the written chain, without caps; N, C: chain ends. Non-standard residues stand in square brackets, D forms with d. Residues, ends and D or L forms follow the SMILES beside them. *: point of attachment. Leu(3R-OH,Nα-propionyl) = CCC(=O)N[C@H](C(=O)*)[C@H](O)C(C)C; X1 = CC(C)[C@@H](O[*:3])[C@H](N[*:1])C(=O)[*:2]; X2 = CC(C)[C@H](O[*:3])[C@@H](N[*:1])C(=O)[*:2]; NMeaThr = CN[C@H](C(=O)O)[C@H](C)O; dPhLac = O=C(O)[C@H](O)Cc1ccccc1; NMeA = CN[C@@H](C)C(=O)O; NMeDha = C=C(NC)C(=O)O

Experiments:
Mel202 cells = assay: Flow cytometry of DNA content (proliferation and apoptosis); settings: 3 d, FIG. 4C-D
Procedure: (§4) Cells were cultured at 37.0 in 5% CO2. […] Cell lines were grown in RPMI 1640 medium (Life Technologies, Carlsbad, Calif.) supplemented with 10% FBS and antibiotics. Cell viability was measured using a water-soluble tetrazolium salt, WTS-8 (Bimake, Houston, Tex.), following the manufacturer's protocol. Flow cytometry for analysis of cell proliferation and apoptosis was performed at the Siteman Cancer Center Flow Cytometry Core on a FACScan analyzer (BD Biosciences, San Diego Calif., USA) using a standard propidium iodide staining protocol as described previously (44).

OCM-1A cells [1] = assay: YAP-driven transcriptional reporter; assay type: cell-based, Human; settings: FIG. 6B
Procedure: Expression data from two experimental replicates are mean-centered; the color gradient corresponds to difference in log 2 ratio of expression from the mean, such that 0.5 versus −0.5 is a total difference of 2-fold in unlogged expression.
Assays of transcriptional reporters driven by YAP or Gα subunits were performed as described (42, 43). YAP- or Ga-driven firefly luciferase activity was normalized to Renilla luciferase expressed from a constitutive promoter.

OCM-1A cells [2] = assay: UM cell viability, water-soluble tetrazolium salt assay; settings: even at high concentration (10 μM)
Procedure: as §4

Mel202 UM cells = assay: as above; settings: Homo sapiens, Mel202, read-out: EC50, inhibition of proliferation (viability)
Procedure: as §4

Gαi/q = assay: In vitro nucleotide exchange (BODIPY-GTPγS fluorescence); assay type: biochemical; settings: FIG. 2B
[3] = molecular target: T1, wild type Gαq interacting with Gβγ2 (Homo sapiens, UniProt P50148); assay: Split luciferase complementation, Gα interaction with Gβγ2; assay type: cell-based; settings: HEK-293 cells, 18 h, FIG. 1B, read-out: EC50, increase of split luciferase complementation
T1 construct: expressed in transfected cells; host or cells: HEK-293
Description: (§1) (FIG. 1A-1C) depicts the effect of FR on the activity state of Gα subunits as determined by interaction with Gβγ or RGS domains in split luciferase complementation assays. FIG. 1A Effect of FR on interaction of Gβγ2 with the indicated wild type (WT) or mutant constitutively active (Q/L) forms of Gα (q) or Gα13 (13). * p<0.01; ** p<0.05. FIG. 1B Potency of FR as a driver of interaction of Gβγ2 with wild type or mutant constitutively active Gαq. FIG. 1C Potency of FR as inhibitor of interaction of RGS2 with mutant constitutively active (Q/L) Gαq, or interaction of the RGS domain of LARG (LARG-RGS) with mutant constitutively active Gα13. FIG. 1D Potency of FR as inhibitor of signal transduction by constitutively active Gαq or Gα13 detected with an SRE(L) promoter-driven transcriptional reporter. Constitutively active Gαq (Q/L), constitutively active Gαq bearing the indicated FR binding site mutations, and constitutively Gα13 (Q/L) were studied.
(§2) To detect protein-protein interactions, a split luciferase complementation assays was used (23), as employed to study activation state-dependent interaction between Gα subunits and cognate binding partners (24).
(§3) Split luciferase assays were performed as described (24). The N-terminal portion of click beetle green luciferase (CBGN) was inserted into the αB-αC loop within the helical domain of wild type (WT) and constitutively active (Q/L) mutant forms of Gα and Gα13. Insertion of foreign proteins at this site preserves Gαfunction (40). The C-terminal region of click beetle green luciferase (CBGC) was fused to the N-termini of G131 (which was co-expressed with untagged Gγ2), RGS2, and the RGS domain of LARG, which interacts with Gal 3 only in the active GTP-bound state (41). HEK-293 cells transiently transfected with various combinations of tagged proteins were treated 18 h with vehicle(DMSO) or FR and luciferase assays were performed to measure reconstituted luciferase activity.

[4] = molecular target: T2, constitutively active Gα13 with Gβγ2 (Homo sapiens, UniProt Q14344, Q226L); assay: as above; assay type: cell-based; settings: FIG. 1A
T2 construct: expressed in transfected cells; host or cells: HEK-293
T2 sequence (Q14344 1-377 Q226L): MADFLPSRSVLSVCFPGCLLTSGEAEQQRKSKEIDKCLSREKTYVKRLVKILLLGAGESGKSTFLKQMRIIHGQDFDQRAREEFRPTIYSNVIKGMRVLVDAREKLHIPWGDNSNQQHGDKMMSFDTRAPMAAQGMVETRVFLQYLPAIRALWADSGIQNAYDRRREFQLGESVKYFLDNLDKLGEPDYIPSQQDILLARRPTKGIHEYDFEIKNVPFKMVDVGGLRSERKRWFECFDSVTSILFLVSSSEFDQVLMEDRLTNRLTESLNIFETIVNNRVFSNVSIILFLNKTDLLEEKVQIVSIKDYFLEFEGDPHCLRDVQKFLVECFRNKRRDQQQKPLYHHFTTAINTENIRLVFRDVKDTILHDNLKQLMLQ
Description: as §1, §2, §3

wild type Gα13 with Gβγ2 = molecular target: T3, wild type Gα13 with Gβγ2 (Homo sapiens, UniProt Q14344); assay: as above; assay type: cell-based; settings: FIG. 1A
T3 construct: expressed in transfected cells; host or cells: HEK-293
Description: as §1, §2, §3

[5] = system: BRAF(V600E)-driven OCM-1A cells; assay: IP1 accumulation in UM cells (IP-One kit); assay type: cell-based, Human; settings: FIG. 3B
Description: Inhibition of signaling by constitutively active Gαq in UM cultured cell lines was quantified by measuring intracellular inositol 1-phosphate (IP1), a metabolically stable product of inositol 1,4,5-trisphosphate produced by Gαq-stimulated phospholipase Cβ. FIG. 3A Basal IP1 levels in UM cell lines driven by constitutively active Gαq (92.1 and Mel202) and BRAF (OCM-1A). FIG. 3B Effects of FR on IP1 levels in 92.1, Mel202 and OCM-1A cells. *p<0.01.
A third UM cell line (OCM-1A) driven by constitutively active BRAF(V600E) served as a negative control. Signaling by Gαq-stimulated phospholipase Cβ was quantified based on levels of inositol monophosphate (IP1), a metabolically stable product of inositol 1,4,5-trisphosphate (IP3) produced by cleavage of phosphatidylinositol 4,5-bisphosphate (PIP2). […] FR reduced IP1 levels in Mel202 and 92.1 cells >50-fold (FIG. 3B), but had only modest effect (˜2-fold) on OCM-1A cells (FIG. 3B).
Accumulation of IP1 in UM cells was measured using the IP-One kit (CiSbio, Inc; catalog number 62IPAPEB) according to the supplier's instructions. 10,000 Mel 202 cells, 20,000 92.1 cells and 20,000 OCM 1A cells were seeded into white-bottom tissue culture grade 384-well plates. Following an overnight incubation, cells were treated with FR or DMSO and returned to the incubator. […] Plates were read in a Synergy H4 Hybred Reader (BioTek, Winooski, Vt., USA). […]

[6] = molecular target: T4, constitutively active Gα13 with the RGS domain of LARG (Homo sapiens, UniProt Q14344, Q226L); assay: Split luciferase complementation, Gα interaction with RGS domain of LARG; assay type: cell-based; settings: FIG. 1C
T4 construct: expressed in transfected cells; host or cells: HEK-293
T4 sequence (Q14344 1-377 Q226L): T2 sequence (Q14344 1-377 Q226L)
Description: as §1, §2
Split luciferase assays were performed as described (24). […]

T1 sequence (P50148 whole entry): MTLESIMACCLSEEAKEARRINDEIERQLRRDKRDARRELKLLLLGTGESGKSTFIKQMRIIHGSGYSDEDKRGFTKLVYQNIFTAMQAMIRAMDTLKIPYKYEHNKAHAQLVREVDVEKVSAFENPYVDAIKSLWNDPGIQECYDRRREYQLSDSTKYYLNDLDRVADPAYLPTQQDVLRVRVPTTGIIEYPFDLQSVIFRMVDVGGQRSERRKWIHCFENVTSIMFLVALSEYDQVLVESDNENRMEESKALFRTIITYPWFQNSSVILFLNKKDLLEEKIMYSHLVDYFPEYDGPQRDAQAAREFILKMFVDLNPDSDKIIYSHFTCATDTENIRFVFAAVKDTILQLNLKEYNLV
T1 sequence (P59768 2-68, further chain): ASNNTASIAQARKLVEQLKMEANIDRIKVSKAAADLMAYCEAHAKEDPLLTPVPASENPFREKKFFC
T1 sequence (P62873 whole entry, further chain): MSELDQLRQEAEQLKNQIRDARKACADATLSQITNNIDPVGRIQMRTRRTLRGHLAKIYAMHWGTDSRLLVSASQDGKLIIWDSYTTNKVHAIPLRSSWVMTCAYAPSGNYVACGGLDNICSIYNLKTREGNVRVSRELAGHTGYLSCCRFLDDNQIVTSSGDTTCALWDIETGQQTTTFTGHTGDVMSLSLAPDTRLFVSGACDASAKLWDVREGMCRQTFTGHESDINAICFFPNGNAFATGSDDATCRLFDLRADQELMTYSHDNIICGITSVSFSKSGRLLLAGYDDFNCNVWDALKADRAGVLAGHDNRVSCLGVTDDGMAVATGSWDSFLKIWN
T3 sequence (P59768 2-68): as the sequence (P59768 2-68, further chain) above
T3 sequence (Q14344 whole entry): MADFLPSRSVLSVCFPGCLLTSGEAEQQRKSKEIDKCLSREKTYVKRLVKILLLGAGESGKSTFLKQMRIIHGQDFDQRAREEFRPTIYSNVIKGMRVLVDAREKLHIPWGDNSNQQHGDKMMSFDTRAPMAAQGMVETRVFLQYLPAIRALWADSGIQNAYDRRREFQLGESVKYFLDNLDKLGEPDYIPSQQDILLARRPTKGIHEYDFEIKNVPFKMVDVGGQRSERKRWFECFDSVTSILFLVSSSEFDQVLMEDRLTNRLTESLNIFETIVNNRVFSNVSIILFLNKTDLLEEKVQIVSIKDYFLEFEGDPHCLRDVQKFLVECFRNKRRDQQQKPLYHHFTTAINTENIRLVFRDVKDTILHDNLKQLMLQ
T3 sequence (P62873 whole entry, further chain): as the sequence (P62873 whole entry, further chain) above

C=C1C(=O)N[C@@H](C)C(=O)N(C)[C@@H](C)C(=O)N[C@H]([C@@H](OC(=O)[C@@H](NC(=O)CC)[C@H](O)C(C)C)C(C)C)C(=O)N(C)[C@@H]([C@H](C)OC)C(=O)O[C@H](C(C)C)[C@H](NC(C)=O)C(=O)O[C@H](Cc2ccccc2)C(=O)N1C [FR, [(1S)-1-[(3S,6R,9S,12S,18R,21S,22R)-21-acetamido-18-benzyl-3-[(1S)-1-methoxyethyl]-4,9,10,12,16-pentamethyl-15-methylidene-2,5,8,11,14,17,20-heptaoxo-22-propan-2-yl-1,19-dioxa-4,7,10,13,16-pentazacyclodocos-6-yl]-2-methylpropyl] (2S,3R)-3-hydroxy-4-methyl-2-(propanoylamino)pentanoate] (Ac-[X1][dPhLac][NMeDha]A[NMeA][X2](Leu(3R-OH,Nα-propionyl))[NMeaThr](Me); ester 1-C)
apoptosis (sub-G1/G0 cells) (Mel202 cells): increased levels of sub-G1/G0 cells
cell cycle inhibition (decreased levels of S- and G2/M-phase cells) (Mel202 cells): induced cell cycle inhibition
effect on YAP-driven transcriptional reporter (OCM-1A cells [1]): no effect
effect on proliferation (OCM-1A cells [2]): no effect
EC50 (Mel202 UM cells): 6 nM
in vitro nucleotide exchange (Gαi/q): inhibited
EC50 [3]: 3 nM
effect on interaction with Gβγ2 [4]: lack of effect
effect on interaction with Gβγ2 (wild type Gα13 with Gβγ2): lack of effect
effect on IP1 levels [5]: ~2 fold
effect on interaction with the RGS domain of LARG [6]: lack of effect
